In patent US10988459B2 (priority 2015, dated 2021) one finds Ki data, which are given here for 27 compounds.

The experiment deals with human RIP1 kinase domain (2-375) (Homo sapiens (Human), UniProt Q13546). In words: biochemical. The format is biochemical. The protocol: Example 794: RIP1 Kinase Inhibition Assays (Biochemical Assay)
The compounds of the present invention were tested for their capacity to inhibit RIP1K activity as described below.
The ability of the receptor interacting protein kinase (RIPK1) to catalyze the hydrolysis of adenosine-5′-triphosphate (ATP) is monitored using the Transcreener ADP (adenosine-5′-diphosphate) assay (BellBrook Labs). Purified human RIP1 kinase domain (2-375) (50 nM) derived from a baculovirus-infected insect cell expression system is incubated with test compounds for 2 hours in 50 mM Hepes buffer (pH 7.5) containing 30 mM MgCl2, 1 mM dithiothreitol, 50 uM ATP, 0.002% Brij-35, and 0.5% dimethyl sulfoxide (DMSO). […] The tracer bound to the antibody is displaced by the ADP generated during the RIP1K reaction, which causes a decrease in fluorescence polarization that is measured by laser excitation at 633 nm with a FP microplate reader M1000. Fractional activity was plotted against test article concentration. Using Genedata Screener software (Genedata; Basel, Switzerland), the data were fit to the tight-binding apparent inhibition constant (Ki^app) Morrison equation [Williams, J. W. and Morrison, J. F. (1979) The kinetics of reversible tight-binding inhibition. Methods Enzymol 63: 437-67]. The following equation was used to calculate fractional activity and Ki^app:
[formula] where [E]T and [I]T are the total concentrations of active enzyme and test article, respectively.
“Method” in the first column of each table refers to the synthetic method(s) used to prepare each compound as shown in the Examples above. In certain examples, chiral column retention times (min) are provided for certain stereoisomers.

[1] abbreviates: tight-binding apparent inhibition constant, human RIP1 kinase domain (2-375) 50 nM, 50 uM ATP, 2 hours, read-out: Ki.
Setting [2] is: Table 5, apparent Ki (Morrison tight-binding fit), 50 nM RIP1 kinase domain, 50 uM ATP, 2 hours incubation, read-out: Ki.
The mark [3] stands for this setting: human RIP1 kinase domain (2-375), Transcreener ADP assay, 50 uM ATP, 2 hours incubation, read-out: RIP1 Ki.
The mark [4] stands for this setting: Table 1, apparent Ki (Morrison tight-binding fit), 50 nM RIP1 kinase domain, 50 uM ATP, 2 hours incubation, read-out: RIP1 Ki.
Where [5] appears, read: human RIP1 kinase domain (2-375), 50 uM ATP, 2 hours incubation, Transcreener ADP assay, read-out: RIP1 Ki.

Where two headings read alike, the source gives them in different places.

Chain of human RIP1 kinase domain (2-375) (Q13546 2-375): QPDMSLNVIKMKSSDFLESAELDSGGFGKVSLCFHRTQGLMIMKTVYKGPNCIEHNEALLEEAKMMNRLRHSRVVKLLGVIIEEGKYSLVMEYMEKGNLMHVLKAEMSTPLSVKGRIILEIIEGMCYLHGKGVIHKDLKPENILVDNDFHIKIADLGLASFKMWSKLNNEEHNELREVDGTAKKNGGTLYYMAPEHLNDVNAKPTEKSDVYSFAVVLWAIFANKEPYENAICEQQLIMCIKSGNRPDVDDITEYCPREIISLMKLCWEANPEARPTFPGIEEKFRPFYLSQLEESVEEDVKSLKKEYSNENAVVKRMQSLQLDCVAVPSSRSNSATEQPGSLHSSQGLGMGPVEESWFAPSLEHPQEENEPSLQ

As for `Cc1cc(F)c2c(c1)OC[C@H](NC(=O)c1nc3n(n1)[C@H](C(C)C)CCC3)C(=O)N2` (single isomer, unassigned) [Example 440], under setting [1], the Ki came out at 3.46 nM.
As for `Cc1cc2n(n1)CC[C@H](NC(=O)c1cc3c(Br)cccc3cn1)C(=O)N2C` (racemic) [Example 701, 5-bromo-N-[rac-(6S)-2,4-dimethyl-5-oxo-7,8-dihydro-6H-pyrazolo[1,5-a][1,3]diazepin-6-yl]isoquinoline-3-carboxamide], the Ki under setting [2] came out at 618 nM.
Regarding `CN1C(=O)[C@@H](NC(=O)c2ncc3c(n2)C2(CCOC2)OC3)COc2ccccc21` (stereo partly drawn) [Example 508, N-[(3S)-5-methyl-4-oxo-2,3-dihydro-1,5-benzoxazepin-3-yl]spiro[5H-furo[3,4-d]pyrimidine-7,3′-tetrahydrofuran]-2-carboxamide], the Ki under setting [1] was found to be 90 nM.
Regarding `Cc1cc2n(n1)CCC(NC(=O)c1ncn(Cc3ccc(Cl)cc3)n1)C(=O)N2C` (stereo not drawn) [Example 249, 1-(4-chlorobenzyl)-N-(2,4-dimethyl-5-oxo 6,7,8-tetrahydro-4H-pyrazolo[1,5-a][1,3]diazepin-6-yl)-1H-1,2,4-triazole-3-carboxamide], under setting [3], the Ki is 92.1 nM.
`CN1C(=O)[C@@H](NC(=O)c2n[nH]c3ccccc23)COc2ccccc21` [Example 33, (S)—N-(5-methyl-4-oxo-2,3,4,5-tetrahydrobenzo[b][1,4]oxazepin-3-yl)-1H-indazole-3-carboxamide]: the Ki under setting [4] is 3500 nM.
Take `C[C@]1(C(F)(F)F)OCc2cnc(C(=O)N[C@H]3CCc4cc(F)cc(F)c4NC3=O)cc21` [Example 746, (1S)-1-methyl-N-[(3S)-7,9-difluoro-2-oxo-1,3,4,5-tetrahydro-1-benzazepin-3-yl]-1-(trifluoromethyl)-3H-furo[3,4-c]pyridine-6-carboxamide]: the Ki under setting [2] came out at 23 nM.
With `O=C(NC1CCn2ncc3c2N(CCO3)C1=O)c1nnc(Cc2ccccc2)[nH]1` (stereo not drawn) [Example 199, 5-benzyl-N-(6-oxo-4,5,6,7,8,9-hexahydro-3-oxa-1,5a,9a-triazabenzo[cd]azulen-7-yl)-4H-1,2,4-triazole-3-carboxamide], the Ki under setting [5] worked out at 766 nM.
On to `CN1C(=O)C(NC(=O)c2ncn(Cc3ccccc3)n2)CCn2nc(CC3CC3)cc21` (stereo not drawn) [Example 456, 1-Benzyl-N-(2-(cyclopropylmethyl)-4-methyl-5-oxo-5,6,7,8-tetrahydro-4H-pyrazol[1,5-a][1,3]diazepin-6-yl)-1H-1,2,4-triazole-3-carboxamide], for which the Ki under setting [1] came to 51 nM.
As for `CN1C(=O)[C@@H](NC(=O)c2nnc3ccc(C(F)(F)F)cn23)COc2ccccc21` [Example 82, (S)-N-(5-methyl-4-oxo-2,3,4,5-tetrahydrobenzo[b][1,4]oxazepin-3-yl)-6-(trifluoromethyl)-[1,2,4]triazolo[4,3-a]pyridine-3-carboxamide], the Ki under setting [4] was found to be 393 nM.
Regarding `CN1C(=O)[C@H](NC(=O)c2ncn(Cc3cc(F)ccc3F)n2)CCn2cncc21` [Example 507, 1-[(2,5-difluorophenyl)methyl]-N-[(3R)-1-methyl-2-oxo-4,5-dihydro-3H-imidazo[1,5-a][1,3]diazepin-3-yl]-1,2,4-triazole-3-carboxamide], the Ki under setting [1] came out at 26 nM.
Consider `O=C(N[C@H]1COc2cc(F)cc(F)c2NC1=O)c1nc2n(n1)CCO[C@H]2c1ccccc1` [Example 640, (8S)-8-phenyl-N-[(3S)-6,8-difluoro-4-oxo-3,5-dihydro-2H-1,5-benzoxazepin-3-yl]-6,8-dihydro-5H-[1,2,4]triazolo[5,1-c][1,4]oxazine-2-carboxamide], for which, under setting [1], the Ki came to 9.4 nM.
As for `Cc1cc2n(n1)CCC(NC(=O)c1ncn(CC3CC(F)(F)C3)n1)C(=O)N2C` (stereo not drawn) [Example 248, 1-((3,3-difluorocyclobutyl)methyl)-N-(2,4-dimethyl-5-oxo-5,6,7,8-tetrahydro-4H-pyrazolo[1,5-a][1,3]diazepin-6-yl)-1H-1,2,4-triazole-3-carboxamide], the Ki under setting [3] amounted to 1100 nM.
For the compound `CN1C(=O)[C@@H](NC(=O)c2ncn(Cc3ccccc3C#N)n2)CCn2nccc21` [Example 603, 1-[(2-cyanophenyl)methyl]-N-(6S)-4-methyl-5-oxo-7,8-dihydro-6H-pyrazolo[1,5-a][1,3]diazepin-6-yl-1,2,4-triazole-3-carboxamide], the Ki under setting [1] turned out to be 370 nM.
`CN1C(=O)[C@@H](NC(=O)c2n[nH]c3c2CCC(c2ccccc2)C3)COc2ccccc21` (stereo partly drawn) [Example 12, N-(5-methyl-4-oxo-2,3,4,5-tetrahydrobenzo[b][1,4]oxazepin-3-yl)-6-phenyl-4,5,6,7-tetrahydro-1H-indazole-3-carboxamide]: the Ki under setting [4] is greater than 3100 nM.
Take `CN1C(=O)[C@@H](NC(=O)c2cc3c(-c4ccccc4)cccc3cn2)CCn2nccc21` (racemic) [Example 703, 5-phenyl-N-[rac-(6S)-4-methyl-5-oxo-7,8-dihydro-6H-pyrazolo[1,5-a][1,3]diazepin-6-yl]isoquinoline-3-carboxamide]: under setting [2], the Ki came to 24 nM.
As to `CCOCCc1cc2n(n1)CC[C@H](NC(=O)c1ncn(Cc3ccccc3)n1)C(=O)N2C` [Example 758], under setting [2], the Ki came to 86 nM.
As to `CCn1cc(-c2cc3n(n2)CCC(NC(=O)c2ncn(Cc4ccccc4)n2)C(=O)N3C)cn1` (single isomer, unassigned) [Example 698, 1-benzyl-N-[2-(1-ethylpyrazol-4-yl)-4-methyl-5-oxo-7,8-dihydro-6H-pyrazolo[1,5-a][1,3]diazepin-6-yl]-1,2,4-triazole-3-carboxamide], the Ki under setting [2] was 27 nM.
Take `Cc1ncc2n1CC[C@@H](NC(=O)c1ncn(Cc3ccccc3F)n1)C(=O)N2C` [Example 576, 1-[(2-fluorophenyl)methyl]-N-(3R)-1,7-dimethyl-2-oxo-4,5-dihydro-3H-imidazo[1,5-a][1, 3]diazepin-3-yl-1,2,4-triazole-3-carboxamide]: the Ki under setting [1] came out at 40 nM.
The same measure, in the same setting: the figure for `Cc1cc(F)c2c(c1)OC[C@H](NC(=O)c1nc3n(n1)C(C(C)C)CC3)C(=O)N2` (stereo partly drawn) [Example 345, N-[(3S)-6-fluoro-8-methyl-4-oxo-3,5-dihydro-2H-1,5-benzoxazepin-3-yl]-5-isopropyl-6,7-di hydro-5H-pyrrolo[1,2-b][1,2,4]triazole-2-carboxamide] is 20 nM.
`CN1C(=O)[C@@H](NC(=O)c2cc3n(n2)CCC[C@@H]3c2ccccc2F)COc2ccccc21` [Example 709, (4R)-4-(2-fluorophenyl)-N-[(3S)-5-methyl-4-oxo-2,3-dihydro-1,5-benzoxazepin-3-yl]-4,5,6,7-tetrahydropyrazolo[1,5-a]pyridine-2-carboxamide]: the Ki under setting [2] turned out to be 34 nM.
`CC(c1ccccc1)c1nnc(C(=O)NC2CCCn3nccc3N(C)C2=O)[nH]1` (stereo not drawn) [Example 95, N-(4-methyl-5-oxo-4,5,6,7,8,9-hexahydropyrazolo[1,5-a][1,3]diazocin-6-yl)-5-(1-phenylethyl)-4H-1,2,4-triazole-3-carboxamide]: the Ki under setting [5] is 4300 nM.
For `CN1C(=O)C(NC(=O)c2ccn(Cc3ccc(F)c(F)c3)n2)CCn2ccnc21` (stereo not drawn) [Example 177, 1-(3,4-difluorobenzyl)-N-(9-methyl-8-oxo-6,7,8,9-tetrahydro-5H-imidazo[1,2-a][1,3]diazepin-7-yl)-1H-pyrazole-3-carboxamide], the Ki under setting [5] was 1900 nM.
For the compound `CN1C(=O)C(NC(=O)c2cn(Cc3ccccc3)nn2)CCn2nc(-c3ccccc3)cc21` (stereo not drawn) [Example 216, 1-benzyl-N-(4-methyl-5-oxo-2-phenyl-5,6,7,8-tetrahydro-4H-pyrazolo[1,5-a][1,3]diazepin-6-yl)-1H-1,2,3-triazole-4-carboxamide], the Ki under setting [5] stood at 97.2 nM.
`Cc1cc2n(n1)CCC(NC(=O)c1ncn(Cc3ccccc3)n1)C(=O)N2C` (stereo not drawn) [Example 72, 1-benzyl-N-(2,4-dimethyl-5-oxo-5,6,7,8-tetrahydro-4H-pyrazolo[1,5-a][1,3]diazepin-6-yl)-1H-1,2,4-triazole-3-carboxamide]: under setting [4], the Ki stood at 68 nM.
Consider `CN1C(=O)[C@@H](NC(=O)c2n[nH]c3ccc(C(F)(F)F)cc23)COc2ccccc21` [Example 115, (S)—N-(5-methyl-4-oxo-2,3,4,5-tetrahydrobenzo[b][1,4]oxazepin-3-yl)-5-(trifluoromethyl)-1H-indazole-3-carboxamide], for which the Ki (RIP1 Ki) was determined as 4.9 nM.
Regarding `CC(C)c1ccc2[nH]nc(C(=O)N[C@H]3COc4ccccc4N(C)C3=O)c2n1` [Example 139, 5-isopropyl-N-[(3S)-5-methyl-4-oxo-2,3-dihydro-1,5-benzoxazepin-3-yl]-1H-pyrazolo[4,3-b]pyridine-3-carboxamide], the Ki under setting [5] came out at 29.2 nM.
For the compound `CCn1nc(C(=O)N[C@H]2COc3ccccc3N(C)C2=O)c2c1CC[C@H](C(F)(F)F)C2` (single isomer, unassigned) [Example 185], under setting [5], the Ki was determined as 825 nM.
